Values quoted from earlier work, collected in patent US20260115234A1, “PRODUCTION & SECRETION OF AUXIN-LIKE MOLECULES IN BACTERIA” (SNIPR Biome ApS, priority 2023, published 2026).
Converted amounts (≈) assume the structure as drawn. Blank lines part the entries; values can stand above or below the molecule they belong to.

Assays:
[1] = tested on: RFP reporter in strain TG1; details: relative fluorescence of plasmids in strain TG1 grown in LB media to saturation
[2] = tested on: A549 human lung cancer cells
[3] = tested on: MCF-7 human breast cancer cells
[4] = tested on: HIV replication in infected H9 lymphocytes

Molecule: BBa_J23102: Anderson Promoter Collection promoter, Seq ID No: 7 (DNA TTGACAGCTAGCTCAGTCCTAGGTACTGTGCTAGC; expressed or natural sequence)
- Measured Strength (Anderson Score) [1]: 0.86

Molecule: BBa_J23107: Anderson Promoter Collection promoter, Seq ID No: 12 (DNA TTTACGGCTAGCTCAGCCCTAGGTATTATGCTAGC; expressed or natural sequence)
- Measured Strength (Anderson Score) [1]: 0.36

Molecule: BBa_J23103: Anderson Promoter Collection promoter, Seq ID No: 8 (DNA CTGATAGCTAGCTCAGTCCTAGGGATTATGCTAGC; expressed or natural sequence)
- Measured Strength (Anderson Score) [1]: 0.01

Molecule: BBa_J23116: Anderson Promoter Collection promoter, Seq ID No: 21 (DNA TTGACAGCTAGCTCAGTCCTAGGGACTATGCTAGC; expressed or natural sequence)
- Measured Strength (Anderson Score) [1]: 0.16

Molecule: BBa_J23112: Anderson Promoter Collection promoter, Seq ID No: 17 (DNA CTGATAGCTAGCTCAGTCCTAGGGATTATGCTAGC; expressed or natural sequence)
- Measured Strength (Anderson Score) [1]: 0

Molecule: BBa_J23111: Anderson Promoter Collection promoter, Seq ID No: 16 (DNA TTGACGGCTAGCTCAGTCCTAGGTATAGTGCTAGC; expressed or natural sequence)
- Measured Strength (Anderson Score) [1]: 0.58

Molecule: BBa_J23118: Anderson Promoter Collection promoter, Seq ID No: 23 (DNA TTGACGGCTAGCTCAGTCCTAGGTATTGTGCTAGC; expressed or natural sequence)
- Measured Strength (Anderson Score) [1]: 0.56

Molecule: BBa_J23114: Anderson Promoter Collection promoter, Seq ID No: 19 (DNA TTTATGGCTAGCTCAGTCCTAGGTACAATGCTAGC; expressed or natural sequence)
- Measured Strength (Anderson Score) [1]: 0.1

Molecule: BBa_J23100: Anderson Promoter Collection constitutive promoter, Seq ID No: 5 (DNA TTGACGGCTAGCTCAGTCCTAGGTACAGTGCTAGC; expressed or natural sequence)
- Measured Strength (Anderson Score) [1]: 1

Molecule: BBa_J23113: Anderson Promoter Collection promoter, Seq ID No: 18 (DNA CTGATGGCTAGCTCAGTCCTAGGGATTATGCTAGC; expressed or natural sequence)
- Measured Strength (Anderson Score) [1]: 0.01

Molecule: BBa_J23117: Anderson Promoter Collection promoter, Seq ID No: 22 (DNA TTGACAGCTAGCTCAGTCCTAGGGATTGTGCTAGC; expressed or natural sequence)
- Measured Strength (Anderson Score) [1]: 0.06

Molecule: BBa_J23105: Anderson Promoter Collection promoter, Seq ID No: 10 (DNA TTTACGGCTAGCTCAGTCCTAGGTACTATGCTAGC; expressed or natural sequence)
- Measured Strength (Anderson Score) [1]: 0.24

Molecule: BBa_J23115: Anderson Promoter Collection promoter, Seq ID No: 20 (DNA TTTATAGCTAGCTCAGCCCTTGGTACAATGCTAGC; expressed or natural sequence)
- Measured Strength (Anderson Score) [1]: 0.15

Molecule: BBa_J23106: Anderson Promoter Collection promoter, Seq ID No: 11 (DNA TTTACGGCTAGCTCAGTCCTAGGTATAGTGCTAGC; expressed or natural sequence)
- Measured Strength (Anderson Score) [1]: 0.47

Molecule: BBa_J23104: Anderson Promoter Collection promoter, Seq ID No: 9 (DNA TTGACAGCTAGCTCAGTCCTAGGTATTGTGCTAGC; expressed or natural sequence)
- Measured Strength (Anderson Score) [1]: 0.72

Molecule: BBa_J23109: Anderson Promoter Collection promoter, Seq ID No: 14 (DNA TTTACAGCTAGCTCAGTCCTAGGGACTGTGCTAGC; expressed or natural sequence)
- Measured Strength (Anderson Score) [1]: 0.04

Molecule: BBa_J23108: Anderson Promoter Collection promoter, Seq ID No: 13 (DNA CTGACAGCTAGCTCAGTCCTAGGTATAATGCTAGC; expressed or natural sequence)
- Measured Strength (Anderson Score) [1]: 0.51

- IC50 inhibition of HIV replication [4]: 16.4 µg/mL
Molecule: O=C(O)c1c[nH]c2ccccc12 [ICA, indole-3-carboxylic acid]
- EC50 cytotoxicity [2]: 4.6 µg/mL (≈ 28.5 µM)
- EC50 cytotoxicity [3]: 12.9 µg/mL (≈ 80 µM)

Molecule: BBa_J23101: Anderson Promoter Collection promoter, Seq ID No: 6 (DNA TTTACAGCTAGCTCAGTCCTAGGTATTATGCTAGC; expressed or natural sequence)
- Measured Strength (Anderson Score) [1]: 0.7

Molecule: BBa_J23110: Anderson Promoter Collection promoter, Seq ID No: 15 (DNA TTTACGGCTAGCTCAGTCCTAGGTACAATGCTAGC; expressed or natural sequence)
- Measured Strength (Anderson Score) [1]: 0.33
